Measured values reported in the NIST ThermoML archive (doi:10.1021/je050413l).
Several values for one entry are separate records, joined by “and”; a condition that tells them apart may be missing. Equal values may be shown once. Numbers after ± are expanded uncertainties.

Legend:
[1] = φn = volume fraction of the nth substance listed; conditions: 303.15 K, 101 kPa, Liquid
[2] = 303.15 K, Liquid; for speed of sound / viscosity: 101 kPa; for mass density: 101.33 kPa, Pycnometric method
[3] = xn = mol fraction of the nth substance listed; conditions: 303.15 K, 101 kPa, Liquid, Direct dilatometry

CC(=O)c1ccccc1 [acetophenone] + Cc1ccc(Cl)cc1
[1], φ1 = 1
Conditions	speed of sound [m/s]	viscosity [mPa·s]
–	1460 ± 13	1.511 ± 0.052

CC(=O)c1ccccc1 [acetophenone] + Cc1cccc(Cl)c1
[1], φ1 = 1
Conditions	speed of sound [m/s]	viscosity [mPa·s]
–	1460 ± 8	1.511 ± 0.052

Cc1ccc(Cl)cc1 [4-chlorotoluene]
[2]
Conditions	mass density [kg/m3]	speed of sound [m/s]	viscosity [mPa·s]
–	1060.54 ± 2.8	1271 ± 12	0.9 ± 0.032

Cc1ccccc1[N+](=O)[O-] [2-nitrotoluene]
[2]
Conditions	mass density [kg/m3]	viscosity [mPa·s]
–	1153.26 ± 3	1.911 ± 0.065

Cc1ccc(Cl)cc1 [4-chlorotoluene] + CC(=O)c1ccccc1
Conditions	excess molar volume, [3] [m3/mol]	speed of sound, [1] [m/s]	viscosity, [1] [mPa·s]
x2 = 0.087	1.6e-08 ± 6e-09	–	–
x2 = 0.1206	2e-08 ± 6e-09	–	–
x2 = 0.2175	2.7e-08 ± 6e-09	–	–
x2 = 0.3009	3.4e-08 ± 6e-09	–	–
x2 = 0.4017	4.1e-08 ± 6e-09	–	–
x2 = 0.5224	4.4e-08 ± 6e-09	–	–
x2 = 0.6211	3.9e-08 ± 6e-09	–	–
x2 = 0.7025	3.2e-08 ± 6e-09	–	–
x2 = 0.8214	2.1e-08 ± 6e-09	–	–
x2 = 0.8774	1.6e-08 ± 6e-09	–	–
φ2 = 0	–	1271 ± 12	0.9 ± 0.032
φ2 = 0.0807	–	1304 ± 12	0.903 ± 0.032
φ2 = 0.1193	–	1314 ± 12	1.011 ± 0.035
φ2 = 0.2153	–	1343 ± 12	1.058 ± 0.037
φ2 = 0.2982	–	1371 ± 12	1.118 ± 0.039
φ2 = 0.3986	–	1406 ± 12	1.198 ± 0.042
φ2 = 0.5192	–	1419 ± 12	1.286 ± 0.045
φ2 = 0.6181	–	1430 ± 12	1.352 ± 0.047
φ2 = 0.6998	–	1440 ± 12	1.4 ± 0.048
φ2 = 0.8195	–	1448 ± 13	1.469 ± 0.051
φ2 = 0.876	–	1453 ± 13	1.496 ± 0.051

Cc1cccc(Cl)c1 [3-chlorotoluene] + CC(=O)c1ccccc1
Conditions	excess molar volume, [3] [m3/mol]	speed of sound, [1] [m/s]	viscosity, [1] [mPa·s]
x2 = 0.0524	1e-08 ± 6e-09	–	–
x2 = 0.103	1.5e-08 ± 6e-09	–	–
x2 = 0.2141	2.3e-08 ± 6e-09	–	–
x2 = 0.3119	2.9e-08 ± 6e-09	–	–
x2 = 0.4266	3.3e-08 ± 6e-09	–	–
x2 = 0.5009	3.4e-08 ± 6e-09	–	–
x2 = 0.6174	3.2e-08 ± 6e-09	–	–
x2 = 0.705	2.8e-08 ± 6e-09	–	–
x2 = 0.8519	1.5e-08 ± 6e-09	–	–
x2 = 0.952	6e-09 ± 6e-09	–	–
φ2 = 0	–	1280 ± 7	0.782 ± 0.028
φ2 = 0.052	–	1297 ± 7	0.891 ± 0.032
φ2 = 0.1022	–	1315 ± 7	0.901 ± 0.032
φ2 = 0.2127	–	1346 ± 8	1.002 ± 0.035
φ2 = 0.3101	–	1370 ± 8	1.073 ± 0.038
φ2 = 0.4246	–	1395 ± 8	1.16 ± 0.04
φ2 = 0.4988	–	1412 ± 8	1.222 ± 0.042
φ2 = 0.6154	–	1431 ± 8	1.31 ± 0.045
φ2 = 0.7033	–	1438 ± 8	1.37 ± 0.047
φ2 = 0.8508	–	1449 ± 8	1.458 ± 0.05
φ2 = 0.9516	–	1455 ± 8	1.503 ± 0.052

Cc1ccccc1Cl [2-chlorotoluene] + CC(=O)c1ccccc1
[1], φ2 = 0
Conditions	speed of sound [m/s]	viscosity [mPa·s]
–	1284 ± 7	0.887 ± 0.031

Cc1ccccc1[N+](=O)[O-] [2-nitrotoluene] + CC(=O)c1ccccc1
Conditions	excess molar volume [m3/mol]	speed of sound [m/s]	viscosity [mPa·s]
[1], φ2 = 0	–	–	1.911 ± 0.065
[1], φ2 = 0.0805	–	2017 ± 11	1.91 ± 0.065
[1], φ2 = 0.1011	–	1997 ± 11	1.903 ± 0.065
[1], φ2 = 0.2132	–	1889 ± 10	1.857 ± 0.063
[1], φ2 = 0.3245	–	1803 ± 10	1.817 ± 0.062
[1], φ2 = 0.4197	–	1737 ± 10	1.781 ± 0.061
[1], φ2 = 0.5086	–	1681 ± 10	1.747 ± 0.06
[1], φ2 = 0.6196	–	1622 ± 10	1.701 ± 0.058
[1], φ2 = 0.7297	–	1568 ± 9	1.652 ± 0.057
[1], φ2 = 0.7911	–	1541 ± 9	1.624 ± 0.056
[1], φ2 = 0.8704	–	1508 ± 9	1.582 ± 0.054
[3], x2 = 0.0812	1.1e-08 ± 6e-09	–	–
[3], x2 = 0.1019	1.5e-08 ± 6e-09	–	–
[3], x2 = 0.2147	2.4e-08 ± 6e-09	–	–
[3], x2 = 0.3265	3.3e-08 ± 6e-09	–	–
[3], x2 = 0.4219	3.9e-08 ± 6e-09	–	–
[3], x2 = 0.5109	4.2e-08 ± 6e-09	–	–
[3], x2 = 0.6217	3.7e-08 ± 6e-09	–	–
[3], x2 = 0.7315	2.6e-08 ± 6e-09	–	–
[3], x2 = 0.7926	2e-08 ± 6e-09	–	–
[3], x2 = 0.8714	1.1e-08 ± 6e-09	–	–

Cc1ccccc1Cl [2-chlorotoluene]
[2]
Conditions	mass density [kg/m3]	speed of sound [m/s]	viscosity [mPa·s]
–	1072.77 ± 2.8	1284 ± 7	0.887 ± 0.031

CC(=O)c1ccccc1 [acetophenone] + Cc1cccc([N+](=O)[O-])c1
[1], φ1 = 1
Conditions	speed of sound [m/s]	viscosity [mPa·s]
–	1466 ± 9	1.511 ± 0.052

Cc1cccc([N+](=O)[O-])c1 [3-nitrotoluene] + CC(=O)c1ccccc1
Conditions	excess molar volume [m3/mol]	speed of sound [m/s]	viscosity [mPa·s]
[1], φ2 = 0	–	–	1.775 ± 0.061
[1], φ2 = 0.0972	–	1987 ± 11	1.748 ± 0.06
[1], φ2 = 0.116	–	1972 ± 11	1.745 ± 0.06
[1], φ2 = 0.2051	–	1892 ± 10	1.731 ± 0.059
[1], φ2 = 0.3085	–	1808 ± 10	1.713 ± 0.059
[1], φ2 = 0.4191	–	1737 ± 10	1.694 ± 0.058
[1], φ2 = 0.5383	–	1666 ± 10	1.666 ± 0.057
[1], φ2 = 0.6446	–	1608 ± 9	1.64 ± 0.056
[1], φ2 = 0.7076	–	1580 ± 9	1.623 ± 0.056
[1], φ2 = 0.7994	–	1539 ± 9	1.594 ± 0.055
[1], φ2 = 0.886	–	1503 ± 9	1.564 ± 0.054
[3], x2 = 0.0984	1.8e-08 ± 6e-09	–	–
[3], x2 = 0.1174	2.1e-08 ± 6e-09	–	–
[3], x2 = 0.2074	3e-08 ± 6e-09	–	–
[3], x2 = 0.3115	3.9e-08 ± 6e-09	–	–
[3], x2 = 0.4225	4.7e-08 ± 6e-09	–	–
[3], x2 = 0.5417	5e-08 ± 6e-09	–	–
[3], x2 = 0.6478	4.3e-08 ± 6e-09	–	–
[3], x2 = 0.7105	3.5e-08 ± 6e-09	–	–
[3], x2 = 0.8016	2.5e-08 ± 6e-09	–	–
[3], x2 = 0.8874	1.4e-08 ± 6e-09	–	–

Cc1cccc(Cl)c1 [3-chlorotoluene]
[2]
Conditions	mass density [kg/m3]	speed of sound [m/s]	viscosity [mPa·s]
–	1065.22 ± 2.8	1280 ± 7	0.782 ± 0.028

CC(=O)c1ccccc1 [acetophenone]
[2]
Conditions	mass density [kg/m3]	speed of sound	viscosity [mPa·s]
–	1019.43 ± 2.7	1460 ± 8 m/s and 1466 ± 8 m/s	1.511 ± 0.052

Cc1cccc([N+](=O)[O-])c1 [3-nitrotoluene]
[2]
Conditions	mass density [kg/m3]	viscosity [mPa·s]
–	1147.62 ± 3	1.775 ± 0.061

CC(=O)c1ccccc1 [acetophenone] + Cc1ccccc1[N+](=O)[O-]
[1], φ1 = 1
Conditions	speed of sound [m/s]	viscosity [mPa·s]
–	1460 ± 9	1.511 ± 0.052

CC(=O)c1ccccc1 [acetophenone] + Cc1ccccc1Cl
Conditions	excess molar volume, [3] [m3/mol]	speed of sound, [1] [m/s]	viscosity, [1] [mPa·s]
x1 = 0.0901	6e-09 ± 6e-09	–	–
x1 = 0.151	9e-09 ± 6e-09	–	–
x1 = 0.2271	1.3e-08 ± 6e-09	–	–
x1 = 0.3205	1.6e-08 ± 6e-09	–	–
x1 = 0.4021	1.8e-08 ± 6e-09	–	–
x1 = 0.5219	2e-08 ± 6e-09	–	–
x1 = 0.6224	2e-08 ± 6e-09	–	–
x1 = 0.702	1.8e-08 ± 6e-09	–	–
x1 = 0.8194	1.5e-08 ± 6e-09	–	–
x1 = 0.9005	9e-09 ± 6e-09	–	–
φ1 = 0.09	–	1310 ± 7	0.901 ± 0.032
φ1 = 0.1508	–	1326 ± 7	0.949 ± 0.033
φ1 = 0.2269	–	1345 ± 8	0.999 ± 0.035
φ1 = 0.3202	–	1368 ± 8	1.066 ± 0.037
φ1 = 0.4018	–	1387 ± 8	1.123 ± 0.039
φ1 = 0.5216	–	1409 ± 8	1.225 ± 0.043
φ1 = 0.6221	–	1423 ± 8	1.305 ± 0.045
φ1 = 0.7017	–	1432 ± 8	1.41 ± 0.049
φ1 = 0.8192	–	1448 ± 8	1.465 ± 0.05
φ1 = 0.9004	–	1451 ± 8	1.502 ± 0.052
φ1 = 1	–	1460 ± 8	1.511 ± 0.052
